Results taken from patent publication US8022206B2 (OSI Pharmaceuticals, LLC, priority 2008, dated 2011).
Blank lines part the entries; values can stand above or below the compound they belong to.

Tests used:
RON (human) = RON (human) (Homo sapiens, UniProt Q04912); test: RON (human) AlphaScreen kinase assay, Km of ATP; format: biochemical; conditions: AlphaScreen, Km of ATP; read-out: RON biochemical IC50
Outline: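 Detection used PT66 AlphaScreen beads added in Tris pH 7.5/NaCl/EDTA/BSA buffer, read after 1 h incubation. Vehicle-only DMSO wells served as controls.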

MET (human) = MET (human) (Homo sapiens, UniProt P08581); test: MET (human) AlphaScreen kinase assay, Km of ATP; format: biochemical; conditions: AlphaScreen, Km of ATP; read-out: Met biochemical IC50
Chain of MET (human) (P08581 25-1390): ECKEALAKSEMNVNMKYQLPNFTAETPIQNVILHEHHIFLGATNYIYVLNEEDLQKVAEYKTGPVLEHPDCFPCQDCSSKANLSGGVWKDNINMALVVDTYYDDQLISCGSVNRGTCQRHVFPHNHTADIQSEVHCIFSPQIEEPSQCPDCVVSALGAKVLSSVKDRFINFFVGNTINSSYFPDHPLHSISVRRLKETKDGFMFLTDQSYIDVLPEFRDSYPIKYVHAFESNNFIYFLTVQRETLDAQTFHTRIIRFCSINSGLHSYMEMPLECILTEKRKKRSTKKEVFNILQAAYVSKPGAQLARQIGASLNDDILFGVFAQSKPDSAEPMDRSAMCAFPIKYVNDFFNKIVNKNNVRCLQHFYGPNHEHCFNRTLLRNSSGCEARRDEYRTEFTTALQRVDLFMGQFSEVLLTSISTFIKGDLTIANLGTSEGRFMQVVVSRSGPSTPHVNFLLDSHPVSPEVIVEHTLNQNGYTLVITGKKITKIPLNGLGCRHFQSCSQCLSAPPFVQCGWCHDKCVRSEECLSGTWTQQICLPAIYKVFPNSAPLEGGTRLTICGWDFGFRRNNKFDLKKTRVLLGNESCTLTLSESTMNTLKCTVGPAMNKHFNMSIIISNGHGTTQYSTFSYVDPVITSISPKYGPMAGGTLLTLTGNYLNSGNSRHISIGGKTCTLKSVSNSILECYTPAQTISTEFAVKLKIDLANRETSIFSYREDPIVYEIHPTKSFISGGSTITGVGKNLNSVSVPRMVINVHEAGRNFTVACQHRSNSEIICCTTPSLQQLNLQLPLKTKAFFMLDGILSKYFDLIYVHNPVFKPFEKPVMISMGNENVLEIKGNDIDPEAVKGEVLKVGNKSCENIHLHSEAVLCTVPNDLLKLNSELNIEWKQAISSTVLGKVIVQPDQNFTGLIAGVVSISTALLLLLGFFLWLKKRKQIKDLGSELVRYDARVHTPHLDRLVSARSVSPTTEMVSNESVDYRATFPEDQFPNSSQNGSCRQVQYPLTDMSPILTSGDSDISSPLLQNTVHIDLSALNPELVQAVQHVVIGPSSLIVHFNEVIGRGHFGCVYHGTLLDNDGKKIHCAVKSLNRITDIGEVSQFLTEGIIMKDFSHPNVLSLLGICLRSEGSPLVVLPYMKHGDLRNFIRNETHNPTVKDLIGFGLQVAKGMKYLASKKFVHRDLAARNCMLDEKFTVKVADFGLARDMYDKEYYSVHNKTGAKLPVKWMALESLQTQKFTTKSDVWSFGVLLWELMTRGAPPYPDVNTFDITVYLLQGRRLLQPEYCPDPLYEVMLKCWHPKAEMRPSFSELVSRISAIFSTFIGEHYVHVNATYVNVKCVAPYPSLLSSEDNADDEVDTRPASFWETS
Outline: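 Human MET at lot-optimised concentration in 50 mM Tris pH 7.4 buffer with 1 mM DTT, compound at 1% DMSO final; enzyme starts the reaction, 60 min at RT.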

Chain of RON (human) (Q04912 25-1400): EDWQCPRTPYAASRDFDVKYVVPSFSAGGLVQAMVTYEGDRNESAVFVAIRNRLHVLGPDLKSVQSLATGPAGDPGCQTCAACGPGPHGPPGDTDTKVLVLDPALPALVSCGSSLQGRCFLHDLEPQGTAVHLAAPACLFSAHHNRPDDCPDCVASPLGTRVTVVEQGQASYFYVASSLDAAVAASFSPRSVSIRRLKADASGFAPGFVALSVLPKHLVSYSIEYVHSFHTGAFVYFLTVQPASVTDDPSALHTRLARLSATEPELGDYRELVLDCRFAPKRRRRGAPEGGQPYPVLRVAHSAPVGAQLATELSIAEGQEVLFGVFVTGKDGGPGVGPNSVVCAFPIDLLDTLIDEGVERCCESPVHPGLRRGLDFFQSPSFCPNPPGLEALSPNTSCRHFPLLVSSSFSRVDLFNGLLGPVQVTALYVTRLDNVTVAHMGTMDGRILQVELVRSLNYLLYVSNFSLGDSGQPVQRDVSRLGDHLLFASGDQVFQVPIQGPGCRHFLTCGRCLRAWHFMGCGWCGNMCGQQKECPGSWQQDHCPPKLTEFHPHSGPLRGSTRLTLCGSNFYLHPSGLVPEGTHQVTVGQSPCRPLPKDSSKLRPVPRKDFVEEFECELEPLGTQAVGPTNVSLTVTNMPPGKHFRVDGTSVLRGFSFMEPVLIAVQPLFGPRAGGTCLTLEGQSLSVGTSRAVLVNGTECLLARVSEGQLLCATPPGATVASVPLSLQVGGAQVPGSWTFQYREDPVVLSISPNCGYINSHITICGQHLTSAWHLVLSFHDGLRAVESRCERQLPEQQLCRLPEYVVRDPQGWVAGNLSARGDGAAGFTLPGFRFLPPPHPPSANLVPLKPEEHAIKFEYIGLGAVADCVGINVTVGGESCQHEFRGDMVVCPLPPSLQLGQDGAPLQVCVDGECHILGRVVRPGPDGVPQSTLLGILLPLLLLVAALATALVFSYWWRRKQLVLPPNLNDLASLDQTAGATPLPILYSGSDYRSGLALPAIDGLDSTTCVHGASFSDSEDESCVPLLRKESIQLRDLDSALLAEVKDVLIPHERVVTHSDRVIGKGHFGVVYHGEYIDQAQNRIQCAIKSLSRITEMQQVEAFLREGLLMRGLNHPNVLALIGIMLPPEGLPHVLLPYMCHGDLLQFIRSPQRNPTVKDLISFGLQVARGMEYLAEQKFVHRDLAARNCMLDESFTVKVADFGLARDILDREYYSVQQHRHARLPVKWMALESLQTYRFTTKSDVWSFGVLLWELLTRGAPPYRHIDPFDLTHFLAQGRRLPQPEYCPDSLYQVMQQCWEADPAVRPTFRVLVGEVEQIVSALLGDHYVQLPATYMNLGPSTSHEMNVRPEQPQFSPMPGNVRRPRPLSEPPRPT

SMILES: CC(Oc1c(N)ncc2c(-c3cnn(C4CCNCC4)c3)coc12)c1ccc(F)cc1 (centres unmarked) [Example 376, 7-[1-(4-Fluorophenyl)ethoxy]-3-(1-piperidin-4-yl-1H-pyrazol-4-yl)furo[3,2-c]pyridin-6-ylamine]
- IC50 (RON (human)): 500 to 5000 nM
- IC50 (MET (human)): 500 to 5000 nM

SMILES: C[C@@H](Oc1c(N)ncc2c(-c3ccc(C(=O)NCCN4CCOCC4)cc3)coc12)c1c(Cl)ccc(F)c1Cl [Example 100, 4-{6-Amino-7-[(R)-1-(2,6-dichloro-3-fluorophenyl)ethoxy]-furo[3,2-c]pyridin-3-yl}-N-(2-morpholin-4-ylethyl)benzamide]
- IC50 (RON (human)): 500 to 5000 nM
- IC50 (MET (human)): 500 to 5000 nM

SMILES: CC(C)CC(Oc1c(N)ncc2c(-c3cnn(C4CCNCC4)c3)coc12)c1c(Cl)ccc(F)c1Cl (centres unmarked) [Example 366, 7-[1-(2,6-Dichloro-3-fluorophenyl)-3-methylbutoxy]-3-(1-piperidin-4-yl-1H-pyrazol-4-yl)furo[3,2-c]pyridin-6-ylamine]
- IC50 (RON (human)): 500 to 5000 nM
- IC50 (MET (human)): 500 to 5000 nM

SMILES: C[C@@H](Oc1c(N)ncc2c(C3=CCN(CC4CCCCC4)CC3)coc12)c1c(Cl)ccc(F)c1Cl [Example 38, 3-(1-Cyclohexylmethyl-1,2,3,6-tetrahydropyridin-4-yl)-7-[(R)-1-(2,6-dichloro-3-fluorophenyl)-ethoxy]-furo[3,2-c]pyridin-6-ylamine]
- IC50 (RON (human)): < 500 nM
- IC50 (MET (human)): < 500 nM

SMILES: Cc1cccc(C(C)Oc2c(N)ncc3c(-c4cnn(C5CCNCC5)c4)coc23)c1 (centres unmarked) [Example 343, 3-(1-Piperidin-4-yl-1H-pyrazol-4-yl)-7-(1-m-tolylethoxy)furo[3,2-c]pyridin-6-ylamine]
- IC50 (RON (human)): 500 to 5000 nM
- IC50 (MET (human)): 500 to 5000 nM

SMILES: C[C@@H](Oc1c(N)ncc2c(-c3csc(CN4CCC4)c3)coc12)c1c(Cl)ccc(F)c1Cl [Example 309, 3-(5-Azetidin-1-ylmethylthiophen-3-yl)-7-[(R)-1-(2,6-dichloro-3-fluorophenyl)ethoxy]furo[3,2-c]pyridin-6-ylamine]
- IC50 (RON (human)): < 500 nM
- IC50 (MET (human)): < 500 nM

SMILES: C[C@@H](Oc1c(N)ncc2c(-c3cccc(CN)c3)coc12)c1c(Cl)ccc(F)c1Cl [Example 90, 3-(3-Aminomethylphenyl)-7-[(R)-1-(2,6-dichloro-3-fluorophenyl)-ethoxy]furo[3,2-c]pyridin-6-ylamine]
- IC50 (RON (human)): 500 to 5000 nM
- IC50 (MET (human)): < 500 nM

SMILES: CC(C)NC(=O)c1cc(-c2coc3c(O[C@H](C)c4c(Cl)ccc(F)c4Cl)c(N)ncc23)cs1 [Example 312, 4-{6-Amino-7-[(R)-1-(2,6-dichloro-3-fluorophenyl)ethoxy]furo[3,2-c]pyridin-3-yl}thiophene-2-carboxylic acid isopropylamide]
- IC50 (RON (human)): 500 to 5000 nM
- IC50 (MET (human)): < 500 nM

SMILES: C[C@@H](Oc1c(N)ncc2c(C3=CCN(C(=O)[C@H](N)Cc4ccccc4)CC3)coc12)c1c(Cl)ccc(F)c1Cl [Example 257, (2R)-2-Amino-1-[4-{6-amino-7-[(1R)-1-(2,6-dichloro-3-fluoro-phenyl)ethoxy]furo[3,2-c]pyridin-3-yl}-3,6-dihydropyridin-1(2H)-yl]-3-phenylpropan-1-one]
- IC50 (RON (human)): 500 to 5000 nM
- IC50 (MET (human)): < 500 nM

SMILES: C[C@@H](Oc1c(N)ncc2c(-c3ccc(CN4CCN(C)CC4)s3)coc12)c1c(Cl)ccc(F)c1Cl [Example 218, 7-[(R)-1-(2,6-Dichloro-3-fluorophenyl)ethoxy]-3-[5-(4-methylpiperazin-1-ylmethyl)-thiophen-2-yl]furo[3,2-c]pyridin-6-ylamine]
- IC50 (RON (human)): < 500 nM
- IC50 (MET (human)): < 500 nM

SMILES: COc1ccccc1CC(C)Oc1c(N)ncc2c(-c3cnn(C4CCNCC4)c3)coc12 (centres unmarked) [Example 406, 7-[2-(2-Methoxyphenyl)-1-methylethoxy]-3-(1-piperidin-4-yl-1H-pyrazol-4-yl)furo[3,2-c]pyridin-6-ylamine]
- IC50 (RON (human)): < 500 nM
- IC50 (MET (human)): < 500 nM

SMILES: CCNC(=O)c1csc(-c2coc3c(O[C@H](C)c4c(Cl)ccc(F)c4Cl)c(N)ncc23)c1 [Example 329, 5-{6-Amino-7-[(R)-1-(2,6-dichloro-3-fluorophenyl)ethoxy]furo[3,2-c]pyridin-3-yl}-thiophene-3-carboxylic acid Ethylamide]
- IC50 (RON (human)): 5000 to 20000 nM
- IC50 (MET (human)): 500 to 5000 nM

SMILES: C[C@@H](Oc1c(N)ncc2c(C3=CCN(CC(N)=O)CC3)coc12)c1c(Cl)ccc(F)c1Cl [Example 202, 2-(4-{6-Amino-7-[(R)-1-(2,6-dichloro-3-fluorophenyl)ethoxy]-furo[3,2-c]pyridin-3-yl}-3,6-dihydro-2H-pyridin-1-yl)-acetamide]
- IC50 (RON (human)): 500 to 5000 nM
- IC50 (MET (human)): < 500 nM

Other lines, results leading:

- IC50 (RON (human)): 500 to 5000 nM
- IC50 (MET (human)): < 500 nM
SMILES: CC(Cc1cccc(F)c1)Oc1c(N)ncc2c(-c3cnn(C4CCNCC4)c3)coc12 (centres unmarked) [Example 424, 7-[2-(3-Fluorophenyl)-1-methylethoxy]-3-(1-piperidin-4-yl-1H-pyrazol-4-yl)furo[3,2-c]pyridin-6-ylamine]

- IC50 (RON (human)): 500 to 5000 nM
- IC50 (MET (human)): 500 to 5000 nM
SMILES: C[C@@H](Oc1c(N)ncc2c(-c3ccc(CN4CCOCC4)s3)coc12)c1c(Cl)ccc(F)c1Cl [Example 291]

- IC50 (RON (human)): < 500 nM
- IC50 (MET (human)): < 500 nM
SMILES: C[C@@H](Oc1c(N)ncc2c(-c3csc(CN(C)C)c3)coc12)c1c(Cl)ccc(F)c1Cl [Example 303, 7-[(R)-1-(2,6-Dichloro-3-fluorophenyl)ethoxy]-3-(5-dimethyl-aminomethylthiophen-3-yl)furo[3,2-c]pyridin-6-ylamine]

- IC50 (RON (human)): 500 to 5000 nM
- IC50 (MET (human)): 500 to 5000 nM
SMILES: COC(=O)c1csc(-c2coc3c(O[C@H](C)c4c(Cl)ccc(F)c4Cl)c(N)ncc23)c1 [Example 292, 5-{6-Amino-7-[(R)-1-(2,6-dichloro-3-fluorophenyl)ethoxy]furo[3,2-c]pyridin-3-yl}thiophene-3-carboxylic acid methyl ester]

- IC50 (RON (human)): 500 to 5000 nM
- IC50 (MET (human)): < 500 nM
SMILES: CCC(=O)N1CC=C(c2coc3c(O[C@H](C)c4c(Cl)ccc(F)c4Cl)c(N)ncc23)CC1 [Example 14, 1-(4-{6-Amino-7-[(R)-1-(2,6-dichloro-3-fluorophenyl)-ethoxy]-furo[3,2-c]pyridin-3-yl}-3,6-dihydro-2H-pyridin-1-yl)-propan-1-one]

- IC50 (RON (human)): 500 to 5000 nM
- IC50 (MET (human)): 500 to 5000 nM
SMILES: C[C@@H](Oc1c(N)ncc2c(-c3cccc(C(N)=O)c3)coc12)c1c(Cl)ccc(F)c1Cl [Example 70, 3-{6-Amino-7-[(R)-1-(2,6-dichloro-3-fluorophenyl)ethoxy]-furo[3,2-c]pyridin-3-yl}benzamide]

- IC50 (RON (human)): < 500 nM
- IC50 (MET (human)): < 500 nM
SMILES: C[C@@H](Oc1c(N)ncc2c(C3=CCN(C(=O)[C@@H](N)Cc4cnc[nH]4)CC3)coc12)c1c(Cl)ccc(F)c1Cl [Example 263, (2S)-2-Amino-1-[4-{6-amino-7-[(1R)-1-(2,6-dichloro-3-fluoro-phenyl)ethoxy]furo[3,2-c]pyridin-3-yl}-3,6-dihydropyridin-1(2H)-yl]-3-(1H-imidazol-5-yl)propan-1-one]

- IC50 (RON (human)): 5000 to 20000 nM
- IC50 (MET (human)): 500 to 5000 nM
SMILES: C[C@@H](Oc1c(N)ncc2c(-c3cncc(C(=O)NC(C)(C)C)c3)coc12)c1c(Cl)ccc(F)c1Cl [Example 280, 5-{6-Amino-7-[(R)-1-(2,6-dichloro-3-fluorophenyl)ethoxy]furo[3,2-c]pyridin-3-yl}-N-tert-butylnicotinamide]

- IC50 (RON (human)): < 500 nM
- IC50 (MET (human)): < 500 nM
SMILES: C[C@@H](Oc1c(N)ncc2c(-c3ccc(C(=O)NCCN(C)C)cc3)coc12)c1c(Cl)ccc(F)c1Cl [Example 71, 4-{6-Amino-7-[(R)-1-(2,6-dichloro-3-fluorophenyl)ethoxy]-furo[3,2-c]pyridin-3-yl}-N-(2-dimethylaminoethyl)benzamide]
